Data as given in patent US20080069899A1, “Pharmaceutical Compositions Comprising Beta-Carboline Derivatives and Use Thereof for the Treatment of Cancer” (priority 2004, published 2008).
“And” between values parts separate entries of the source, which are not always exact repeats. Equal values may be shown once. Read-outs that look alike come from different tables or passages of the source.

Legend:
[1] = Protocol: (§1) The animal model chosen is that of severe combined immunodeficient (NOD-SCID) mice having received a xenograft of human tumor cells.
(§2) Male and female NOD-SCID mice, more than 3 months old, were raised in an environment of strict sterility, in an insulator ventilated with filtered air and sterilized, at 22° C. and 40% humidity, with a day-12 h/night-12 h cycle. The cages, feeding bottles and the water were sterilized in an autoclave at 120° C. for 30 minutes and the food as well as the bedding were treated with γ-irradiation. All handling took place in aseptic conditions under a laminar flow hood.
150 mg of cyclophosphamide (Sigma) were dissolved in 8 ml of water and the solution obtained was sterilized by filtration on a membrane with 0.22 μm porosity.
50 mg of 5-fluorouracil (Sigma) were dissolved in 8 ml of water and the solution obtained was sterilized by filtration on a membrane with 0.22 μm porosity.
100 mg of dihydrated harmalacidine hydrochloride were dissolved in 8 ml of water and the solution obtained was sterilized by filtration on a membrane with 0.22 μm porosity. The mice received either 25, 50, or 100 mg/kg/day of harmalacidine alone, or a mixture of 25 or 50 mg/kg/day of harmalacidine+50 mg/kg/day of cyclophosphamide.

[2] = tested on: HT29 human colon tumor cells; assay: in vivo antineoplastic activity, NOD-SCID mice xenografted with HT29 human tumour cells
Protocol: as §1, §2
The mice were subjected to general anaesthesia by i.p. injection of 0.3 to 0.4 ml of hypnomidate at 2 mg/ml. 1×10^7 HT29 human colon tumor cells in suspension in 200 μl of PBS were then injected sub-cutaneously, into the backs of the mice. […]
50 mg of 5-fluorouracil (Sigma) were dissolved in 8 ml of water and the solution obtained was sterilized by filtration on a membrane with 0.22 μm porosity. […]

[3] = tested on: HBMEC (immortalized human bone marrow endothelial cell lines); assay: in vitro cytotoxicity test (neutral red, 96-well microplate); type: cell-based; conditions: 96 h, incubation 4 days
Protocol: (§3) The cytotoxic effects of the different alkaloid extracts of P. harmala were studied on several cell lines: • human leukemia cell lines: K562 and Jurkat (leukemia), U937 (myeloma), • human solid tumor cell lines: KB (epithelioma of the nasopharynx) and HT29 (colon), • immortalized human bone marrow endothelial cell lines: HBMEC.
(§4) The cells are cultured in an oven under a 5% CO2 atmosphere and at 37° C., in RPMI 1640 medium for K562, Jurkat, U937 and HT29 and DMEM for KB, supplemented with 10% foetal calf serum, 0.01% penicillin-streptomycin and L-glutamine 2 mM and in EGM2 medium for the HBMEC cells.
(§5) The cytotoxicity test is carried out in a 96-well microplate in the presence of the extract to be tested at varying concentrations of 40, 20, 10, 5, 1, 0.5 μg/ml and in the absence of product, after incubation for 4 days at 37° C. On the 3rd day, a solution of neutral red is added which is absorbed by living cells. The optical density (OD) of dye released by lyzed cells is measured at 540 nm by an Elisa plate reader. The toxicity (% inhibition of growth) is inversely proportional to the optical density.
(§6) The percentage of inhibition is defined as being the difference between the OD without product and the OD in the presence of product compared to the OD without product.
(§7) The concentration inhibiting 50% of cell growth is obtained from the curve representing the percentage of inhibition as a function of the logarithm of the concentration.

K562 (leukemia) = assay: as above; type: cell-based; conditions: Homo sapiens, 96 h, incubation 4 days
Protocol: as §3, §4, §5, §6, §7

HT29 (colon) = assay: as above; type: cell-based; conditions: Homo sapiens, HT-29, 96 h, incubation 4 days
Protocol: as §3, §4, §5, §6, §7

[4] = tested on: KB (epithelioma of the nasopharynx); assay: as above; type: cell-based; conditions: Homo sapiens, 96 h, incubation 4 days
Protocol: as §3, §4, §5, §6, §7

Jurkat (leukemia) = assay: as above; type: cell-based; conditions: Homo sapiens, 96 h, incubation 4 days
Protocol: as §3, §4, §5, §6, §7

U937 (myeloma) = assay: as above; type: cell-based; conditions: Homo sapiens, U-937, 96 h, incubation 4 days
Protocol: as §3, §4, §5, §6, §7

[5] = tested on: malignant and endothelial cells tested; assay: summary of in vitro cytotoxicity over all lines tested; type: cell-based, human; conditions: Homo sapiens, Endothelial cell, range over the cell lines; read-out: IC50 vis-à-vis malignant and endothelial cells tested
Protocol: as §3, §4, §5, §6, §7
To summarize, the IC50 vis-à-vis malignant and endothelial cells tested is the following: […]

[6] = tested on: HT29 human colon tumor cells; assay: in vivo antineoplastic activity, NOD-SCID mice xenografted with HT29 human tumour cells; remark: listed apart in the source
murine tumorous cells = conditions: cited from earlier work

Molecule: COc1ccc2c3c([nH]c2c1)C(=O)NCC3 [Harmalacidine (C), harmalacidine]
- state of the mice (printed in the T/C column) ([1]; harmalacidine 100 mg/kg/day alone, Day 15): dead
- tolerance of the dose ([1]; harmalacidine 100 mg/kg/day, for more than 10 days): not tolerated
- Average volume of the tumours of the treated mice compared to the average volume of the tumours of the non-treated mice (T/C) (%) ([2]; harmalacidine 25 mg/kg/day alone per os, Day 15): 81%
- Average volume of the tumours of the treated mice compared to the average volume of the tumours of the non-treated mice (T/C) (%) ([2]; harmalacidine 25 mg/kg/day alone per os, Day 30): 72%
- Average volume of the tumours of the treated mice compared to the average volume of the tumours of the non-treated mice (T/C) (%) ([2]; harmalacidine 25 mg/kg/day alone per os, Day 40): 70%
- Average volume of the tumours of the treated mice compared to the average volume of the tumours of the non-treated mice (T/C) (%) ([2]; harmalacidine 25 mg/kg/day alone per os, Day 50): 65%
- Average volume of the tumours of the treated mice compared to the average volume of the tumours of the non-treated mice (T/C) (%) ([2]; harmalacidine 25 mg/kg/day alone per os, Day 60): 77%
- Average volume of the tumours of the treated mice compared to the average volume of the tumours of the non-treated mice (T/C) (%) ([2]; harmalacidine 50 mg/kg/day alone per os, Day 15): 42%
- Average volume of the tumours of the treated mice compared to the average volume of the tumours of the non-treated mice (T/C) (%) ([2]; harmalacidine 50 mg/kg/day alone per os, Day 30): 56%
- Average volume of the tumours of the treated mice compared to the average volume of the tumours of the non-treated mice (T/C) (%) ([2]; harmalacidine 50 mg/kg/day alone per os, Day 40): 48%
- Average volume of the tumours of the treated mice compared to the average volume of the tumours of the non-treated mice (T/C) (%) ([2]; harmalacidine 50 mg/kg/day alone per os, Day 50): 45%
- Average volume of the tumours of the treated mice compared to the average volume of the tumours of the non-treated mice (T/C) (%) ([2]; harmalacidine 50 mg/kg/day alone per os, Day 60): 57%
- IC50 [3]: 28 µg/mL and 130 µM
- IC50 (K562 (leukemia)): 12.5 µg/mL and 57.8 µM
- IC50 (HT29 (colon)): 10.5 µg/mL and 34.4 µM
- IC50 [4]: 12 µg/mL and 55.5 µM
- IC50 (Jurkat (leukemia)): 15.5 µg/mL and 71.7 µM
- IC50 (U937 (myeloma)): 29 µg/mL and 134 µM

Molecule: COc1ccc2c(c1)[nH]c1c(C)nccc12 [Harmine (A), harmine]
- tolerance of the dose ([1]; harmine 200 mg/kg/day per os, the mice died after a few days of treatment): not tolerated
- IC50 [5]: 2.9 µg/mL to 4.6 µg/mL and 14 µM to 22 µM
- Average volume of the tumours of the treated mice compared to the average volume of the tumours of the non-treated mice (T/C) (%) ([6]; harmine 100 mg/kg/day per os, Day 40): 77%
- Average volume of the tumours of the treated mice compared to the average volume of the tumours of the non-treated mice (T/C) (%) ([6]; harmine 125 mg/kg/day per os, Day 30): 55%
- Average volume of the tumours of the treated mice compared to the average volume of the tumours of the non-treated mice (T/C) (%) ([6]; harmine 175 mg/kg/day per os, Day 40): 10%
- Average volume of the tumours of the treated mice compared to the average volume of the tumours of the non-treated mice (T/C) (%) ([6]; harmine 175 mg/kg/day per os, Day 50): 30%
- inhibitory action on the growth of the tumors ([2]; harmine 100 mg/kg/day per os): very weak effect
- Average volume of the tumours of the treated mice compared to the average volume of the tumours of the non-treated mice (T/C) (%) ([2]; harmine 100 mg/kg/day per os, Day 30): 74%
- Average volume of the tumours of the treated mice compared to the average volume of the tumours of the non-treated mice (T/C) (%) ([2]; harmine 100 mg/kg/day per os, Day 50): 84%
- Average volume of the tumours of the treated mice compared to the average volume of the tumours of the non-treated mice (T/C) (%) ([2]; harmine 100 mg/kg/day per os, Day 60): 105%
- Average volume of the tumours of the treated mice compared to the average volume of the tumours of the non-treated mice (T/C) (%) ([2]; harmine 125 mg/kg/day per os, Day 40): 58%
- Average volume of the tumours of the treated mice compared to the average volume of the tumours of the non-treated mice (T/C) (%) ([2]; harmine 125 mg/kg/day per os, Day 50): 54%
- Average volume of the tumours of the treated mice compared to the average volume of the tumours of the non-treated mice (T/C) (%) ([2]; harmine 125 mg/kg/day per os, Day 60): 67%
- Average volume of the tumours of the treated mice compared to the average volume of the tumours of the non-treated mice (T/C) (%) ([2]; harmine 150 mg/kg/day per os, Day 30): 41%
- Average volume of the tumours of the treated mice compared to the average volume of the tumours of the non-treated mice (T/C) (%) ([2]; harmine 150 mg/kg/day per os, Day 40): 46%
- Average volume of the tumours of the treated mice compared to the average volume of the tumours of the non-treated mice (T/C) (%) ([2]; harmine 150 mg/kg/day per os, Day 50): 42%
- Average volume of the tumours of the treated mice compared to the average volume of the tumours of the non-treated mice (T/C) (%) ([2]; harmine 150 mg/kg/day per os, Day 60): 51%
- Average volume of the tumours of the treated mice compared to the average volume of the tumours of the non-treated mice (T/C) (%) ([2]; harmine 175 mg/kg/day per os, Day 30): 40%
- Average volume of the tumours of the treated mice compared to the average volume of the tumours of the non-treated mice (T/C) (%) ([2]; harmine 175 mg/kg/day per os, Day 60): 40%
- T/C ([2]; harmine 175 mg/kg/day per os, for the entire duration of treatment): 40%
- IC50 [3]: 3.5 µg/mL and 16.5 µM
- IC50 (HT29 (colon)): 2.9 µg/mL and 13.7 µM
- IC50 [4]: 4.6 µg/mL and 21.7 µM
- IC50 (Jurkat (leukemia)): 3.2 µg/mL and 15.1 µM
- IC50 (U937 (myeloma)): 16.5 µM

Molecule: Peganine [Peganine (B)]
- concentration inhibiting 50% of cell growth (IC50) (murine tumorous cells): inactive
